In US6794396B2, “Substituted pyridines useful for inhibiting cholesteryl ester transfer protein activity” (Pharmacia Corporation, priority 1998, dated 2004) one finds IC50 data, which are given here for 34 molecules.

As a reminder, the IC50 is the midpoint of a concentration-inhibition curve.

The target in the first experiment is T1, CETP (Homo sapiens, UniProt P11597).
T1 construct: made in house; host or cells: CHO cells (serum-free conditioned medium)
T1 sequence (P11597 18-493): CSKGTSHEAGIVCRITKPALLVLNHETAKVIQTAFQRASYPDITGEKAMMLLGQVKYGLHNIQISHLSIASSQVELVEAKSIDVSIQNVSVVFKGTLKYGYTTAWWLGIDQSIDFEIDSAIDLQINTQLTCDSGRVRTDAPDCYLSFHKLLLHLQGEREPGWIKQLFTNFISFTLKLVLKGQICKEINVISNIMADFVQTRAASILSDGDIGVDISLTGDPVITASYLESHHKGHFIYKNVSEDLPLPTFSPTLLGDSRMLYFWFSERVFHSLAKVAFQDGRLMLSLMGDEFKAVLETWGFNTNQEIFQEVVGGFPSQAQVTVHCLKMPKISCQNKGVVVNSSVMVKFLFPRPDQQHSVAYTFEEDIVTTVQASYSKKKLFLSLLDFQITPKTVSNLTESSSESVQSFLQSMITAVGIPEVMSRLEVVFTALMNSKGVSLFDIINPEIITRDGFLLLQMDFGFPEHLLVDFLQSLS
Briefly: CETP activity in vitro: transfer of [3H]CE from HDL donor to LDL acceptor particles. In kind it is biochemical. The following applies: 50% inhibition of [3H]CE transfer from HDL to LDL, 2 hours at 37° C.; read-out: IC50(μm). The procedure: The ability of compounds to inhibit CETP were assessed using an in vitro assay that measured the rate of transfer of radiolabeled cholesteryl ester ([^3H]CE) from HDL donor particles to LDL acceptor particles. Details of the assay are provided by Glenn et al. (“Quantification of Cholesteryl Ester Transfer Protein (CETP): A) CETP Activity and B) Immunochemical Assay of CETP Protein,” Meth. Enzymol., Glenn and Melton (Meth. Enzymol., 263, 339-351 (1996), which is incorporated herein by reference). CETP was obtained from the serum-free conditioned medium of CHO cells transfected with a cDNA for CETP (Wang, S. et al. J. Biol Chem. 267, 17487-17490 (1992), which is incorporated herein by reference).
To measure CETP activity, [^3H]CE-labeled HDL, LDL, CETP and assay buffer (50 mM tris(hydroxymethyl)amino-methane, pH 7.4; 150 mM sodium chloride; 2 mM ethylenediamine-tetraacetic acid; 1% bovine serum albumin) were incubated in a volume of 200 μl, for 2 hours at 37° C. in 96 well plates. LDL was differentially precipitated by the addition of 50 μl of 1% (w/v) dextran sulfate/0.5 M magnesium chloride, mixed by vortex, and incubated at room temperature for 10 minutes The solution (200μl) was transferred to a filter plate (Millipore). After filtration, the radioactivity present in the precipitated LDL was measured by liquid scintillation counting.
This value was defined as the IC50.
In the case of `COC(=O)c1c(C(F)F)nc(C(F)(F)F)c(CSc2ccc(C(C)(C)C)cc2)c1CC(C)C` [Compound 3, Methyl 5-(4-t-Butylphenylthiomethyl)-2-(difluoromethyl)-4-(2-methylpropyl)-6-(trifluoromethyl)-3-pyridinecarboxylate], the IC50 is 9 µM.

Consider `CCOC(=O)c1c(C(F)(F)F)nc(C(F)(F)F)c(C)c1Sc1ccc(C(C)C)cc1` [Compound 11, Ethyl 2,6-Bis(trifluoromethyl)-4-[4-(isopropylphenyl)thio]-5-methyl-3-pyridinecarboxylate], for which the IC50 is 25 µM.

In the case of `COC(=O)c1c(C(F)F)nc(C(F)(F)F)c(C(O)c2ccco2)c1CC(C)C` (stereo not shown) [Compound 13, Methyl 2-(difluoromethyl)-5-(1-hydroxyl-furylmethyl)-4-(2-methylpropyl)-6-(trifluoromethyl)-3-pyridinecarboxylate], the half-inhibitory concentration (IC50) came out at 30 µM.

For the molecule `COC(=O)c1c(C(F)F)nc(C(F)(F)F)c(N=C=S)c1CC(C)C` [Compound 18], the half-inhibitory concentration (IC50) amounted to 35 µM.

`CCOC(=O)c1c(C(F)F)nc(C(F)(F)F)c(C(=O)OCC)c1SC1CCCC1` [Compound 22, Diethyl 2-(Difluoromethyl)-4-(cyclopentylthio)-6-(trifluoromethyl)-3,5-pyridinedicarboxylate]: the 50% inhibitory concentration (IC50) turned out to be 40 µM.

For `CCOC(=O)c1c(Sc2ccccc2)cc(C(F)(F)F)nc1C(F)(F)F` [Compound 23], the IC50 is 40 µM.

Consider `COC(=O)c1c(C(F)F)nc(C(F)(F)F)c(N=C(OC)SC)c1CC(C)C` [Compound 27, Methyl 2-(Difluoromethyl)-5-{[methoxy (methylthio)methylene]amino)-4-(2-methylpropyl)-6-(trifluoromethyl)-3-pyridinecarboxylate], for which the IC50 stood at 40 µM.

Consider `COC(=O)c1c(C(F)F)nc(C(F)(F)F)c(CI)c1CC(C)C` [Compound 32, Methyl 2-(Difluoromethyl)-5-(iodomethyl)-4-(2-methylpropyl)-6-(trifluoromethyl)-3-pyridinecarboxylate], for which the IC50 was 45 µM.

On to `COC(=O)c1c(C(F)F)nc(C(F)(F)F)c(C(OC)c2ccns2)c1CC(C)C` (stereo not shown) [Compound 34, Methyl 2-(Difluoromethyl)-5-[(methoxy)isothiazol-5-ylmethyl]-4-(2-methylpropyl)-6-(trifluoromethyl)-3-pyridinecarboxylate], for which the half-inhibitory concentration (IC50) was 45 µM.

As for `COC(=O)c1c(OCc2ccccc2)cc(C(F)(F)F)nc1C(F)(F)F` [Compound 37, Methyl 2,6-bis(Trifluoromethyl)-4-(benzyloxy)-3-pyridinecarboxylate], the IC50 amounted to 45 µM.

As for `COC(=O)c1c(C(F)F)nc(C(F)(F)F)c(COC(=O)c2ccccc2)c1CC1CC1` [Compound 41, Methyl 5-(Benzoyloxymethyl)-2-(difluoromethyl)4-(cyclopropylmethyl)-6-(trifluoromethyl)-3-pyridinecarboxylate], the IC50 came to 50 µM.

`COC(=O)c1cc(CSC(=S)N(C)C)c(C(F)(F)F)nc1C(F)F` [Compound 43, Methyl 2-(Difluoromethyl)-5-[(dimethylaminothionothio)methyl]-6-(trifluoromethyl)-3-pyridinecarboxylate]: the IC50 was found to be 50 µM.

As to `CCOC(=O)c1c(C(F)(F)F)nc(C(F)F)c(NC(=O)Nc2c(C(F)F)nc(C(F)(F)F)c(C(=O)OCC)c2CC)c1CC` [Compound 48], the concentration for half-maximal inhibition (IC50) is 50 µM.

On to `CCOC(=O)c1c(C(F)(F)F)nc(C(F)(F)F)c(C(=O)OC)c1OCC` [Compound 52], for which the concentration for half-maximal inhibition (IC50) is 50 µM.

Turning to `CCOC(=O)c1c(C(F)(F)F)nc(C(F)(F)F)c(C)c1OC(C)C` [Compound 53, Ethyl 2,6-Bis(trifluoromethyl)-4-(isopropoxy)-5-methyl-3-pyridinecarboxylate], the IC50 is 50 µM.

For `COC(=O)c1c(C(F)(F)F)ncc(C(=O)c2cnc(C(F)(F)F)c(C(=O)OC)c2OC(C)C)c1OC(C)C` [Compound 54], the IC50 amounted to 50 µM.

The experiment is the same for the next values; noted with them: IC50(μm), 50% inhibition of [3H]CE transfer from HDL to LDL, 2 hours at 37° C.
`COC(=O)c1c(C(F)F)nc(C(F)(F)F)c(N=S=O)c1CC(C)C` [Compound 1] showed a half-inhibitory concentration (IC50) of 2 µM.

On to `CCOC(=O)c1c(C(F)(F)F)nc(C(F)F)c(C(=O)OC)c1S` [Compound 2, 3-Methyl 5-Ethyl 2-(Difluoromethyl)-4-mercapto-6-(trifluoromethyl)-3,5-pyridinedicarboxylate], for which the half-inhibitory concentration (IC50) is 3 µM.

`CCCCCCCCCCCCCCCC(=O)Sc1c(C(F)(F)F)nc(C(F)F)c(C(=O)OC)c1CC(C)C` [Compound 5, Methyl 2-(Difluoromethyl)-4-(2-methylpropyl)-5-(palmitoylthio)-6-(trifluoromethyl)-3-pyridinecarboxylate] showed an IC50 of 8 µM.

`COC(=O)Sc1c(C(F)(F)F)nc(C(F)F)c(C(=O)OC)c1CC(C)C` [Compound 6, Methyl 2-(Difluoromethyl)-4-(2-methylpropyl)-5-[(methoxycarbonyl)thio]-6-(trifluoromethyl)-3-pyridinecarboxylate]: the IC50 is 8 µM.

On to `CC(C)Cc1c(C(=O)OC(C)(C)C)c(C(F)F)nc(C(F)(F)F)c1C(=O)OC(C)(C)C` [Compound 9, Di-t-Butyl 2-(difluoromethyl)-4-(2-methylpropyl)-6-(trifluoromethyl)-3,5-pyridinedicarboxylate], for which 20 µM corresponded to half-maximal inhibition (IC50).

`COC(=O)c1c(C(F)(F)F)nc(C(F)(F)F)c(C2=NCCS2)c1CC(C)C` [Compound 12, Methyl 2,6-Bis(trifluoromethyl)-5-(4,5-dihydro-2-thiazoly)-4-(2-methylpropyl)-3-pyridinecarboxylate] showed a half-inhibitory concentration (IC50) of 25 µM.

For `COC(=O)c1c(C(F)F)nc(C(F)(F)F)c(C(=O)SC(C)C)c1C1CCC1` [Compound 14, Methyl 2-(Difluoromethyl)-5-[(i-propylthio)carbonyl]-4-(cyclobutyl)-6-(trifluoromethyl)-3-pyridinecarboxylate], the IC50 was found to be 30 µM.

Turning to `COC(=O)c1c(C(F)F)nc(C(F)(F)F)c(N=C(CBr)OC)c1CC(C)C` [Compound 16], the 50% inhibitory concentration (IC50) came out at 30 µM.

Molecule `COC(=O)c1c(C(F)F)nc(C(F)(F)F)c(C#C[Si](C)(C)C)c1CC(C)C` [Compound 19, Methyl 2-(Difluoromethyl)-4-(2-methylpropyl)-6-(trifluoromethyl)-5-[(trimethylsilyl)ethynyl]-3-pyridinedicarboxylate] displayed an IC50 of 35 µM.

Molecule `CCSC(C)c1c(C(F)(F)F)nc(C(F)F)c(C(=O)OC)c1CC1CC1` (stereo not shown) [Compound 21] showed a concentration for half-maximal inhibition (IC50) of 40 µM.

The molecule `COC(=O)c1c(C(F)F)nc(C(F)(F)F)c(N=COCC2CO2)c1CC(C)C` (stereo not shown) [Compound 30] had an IC50 of 40 µM.

For the molecule `COC(=O)c1c(C(F)F)nc(C(F)(F)F)c(SCSC)c1CC(C)C` [Compound 33, Methyl 2-(Difluoromethyl)-4-(2-methylpropyl)-5-(methylthiomethylthio)-6-(trifluoromethyl)-3-pyridinecarboxylate], the half-maximal inhibitory concentration (IC50) worked out at 45 µM.

Take `COC=C(Br)c1c(C(F)(F)F)nc(C(F)F)c(C(=O)OC)c1CC1CC1` [Compound 35, Methyl 5-(1-Bromo-2-methoxyethenyl)-4-(cyclopropylmethyl)-2-(difluoromethyl)-6-(trifluoromethyl)-3-pyridinecarboxylate]: it took 45 µM to reach half-maximal inhibition (IC50).

With `CCOC(=O)c1c(C(F)(F)F)nc(C(F)(F)F)c(C(=O)OCC)c1CC(C)C` [Compound 36, Diethyl 2,6-Bis(trifluoromethyl)-4-(2-methylpropyl)-3,5-pyridinedicarboxylate], the IC50 stood at 45 µM.

Regarding `CCOC(=O)c1c(C(F)F)nc(C(F)(F)F)c(C(=O)OCC)c1C1CCCCC1` [Compound 38], inhibition was half-maximal at 50 µM (IC50).

Take `CCOC(=O)c1c(C(F)F)nc(C(F)(F)F)c(C(=O)OCC)c1SC(C)(C)C` [Compound 39, Diethyl 2-(Difluoromethyl)-4-(t-butylthio)-6-(trifluoromethyl)-3,5-pyridine-dicarboxylate]: the IC50 is 50 µM.

As for `COC(=O)c1c(C(F)F)nc(C(F)(F)F)c(N=C(SC)SC)c1CC(C)C` [Compound 42, Methyl 5-{[Bis(methylthio)methylene]amino}-2-(difluoromethyl)-4-(2-methylpropyl)-6-(trifluoromethyl)-3-pyridinecarboxylate], the IC50 worked out at 50 µM.

The molecule `COC(=O)c1c(C(F)F)nc(C(F)(F)F)c(C(=O)OC)c1CCC(C)C` [Compound 49] displayed an IC50 of 50 µM.
